Results from patent US12544428B2, “Controlled-release CNP agonists with reduced side-effects” (ASCENDIS PHARMA GROWTH DISORDERS A/S, priority 2016, dated 2026).
Like-named read-outs stand apart in the source and are kept apart here.

Experiments:
[1] = target: recombinant human NEP (Homo sapiens, UniProt P08473); details: pH 7.4
Method: In order to determine the in vitro stability of various CNP variants including different peptide chain lengths and PEGylations using different PEGylation sites and PEG molecules in the presence of Neutral Endopeptidase (NEP), a NEP digest assay was established. This assay monitored the decrease of the non-digested CNP variant (normalized with the internal standard PFP) over time in reference to the t0-time point.
In detail, recombinant human NEP (2.5 μg/mL final concentration) and the standard pentafluorophenol (PFP; 40 μg/mL final concentration) were added to the CNP variant (100 μg CNP equivalents/mL) in digest buffer (50 mM Tris-HCl, pH 7.4, 10 mM NaCl). The solution was incubated at 37° C. and 500 rpm for up to 4 days. Samples were taken at different time intervals. The reaction was stopped by a combined reduction and heat denaturation adding TCEP (tris(2-carboxyethyl)phosphine; 25 mM final concentration) and incubating the mixture at 95° C., 500 rpm for 5 minutes. The resulting reaction products were assigned using HPLC-MS. The half life of each CNP variant was calculated via the ratio change in the HPLC-UV peak areas of CNP and PFP over time.

[2] = CNP injection, healthy volunteers; cited from earlier work
[3] = after iv administration; cited from earlier work
[4] = target: T1, NPR-B receptor (Mus musculus, UniProt Q6VVW5); assay: Functional cGMP stimulation in NIH-3T3 cells with CNP variants; assay type: cell-based, murine; details: residual NPR-B activity vs non-PEGylated CNP-38, cGMP
T1 construct: These cells express endogenously the NPR-B receptor on the cell surface; endogenous in cells; host or cells: NIH-3T3 (murine embryo fibroblast)
T1 sequence (Q6VVW5 23-1047 limits assumed): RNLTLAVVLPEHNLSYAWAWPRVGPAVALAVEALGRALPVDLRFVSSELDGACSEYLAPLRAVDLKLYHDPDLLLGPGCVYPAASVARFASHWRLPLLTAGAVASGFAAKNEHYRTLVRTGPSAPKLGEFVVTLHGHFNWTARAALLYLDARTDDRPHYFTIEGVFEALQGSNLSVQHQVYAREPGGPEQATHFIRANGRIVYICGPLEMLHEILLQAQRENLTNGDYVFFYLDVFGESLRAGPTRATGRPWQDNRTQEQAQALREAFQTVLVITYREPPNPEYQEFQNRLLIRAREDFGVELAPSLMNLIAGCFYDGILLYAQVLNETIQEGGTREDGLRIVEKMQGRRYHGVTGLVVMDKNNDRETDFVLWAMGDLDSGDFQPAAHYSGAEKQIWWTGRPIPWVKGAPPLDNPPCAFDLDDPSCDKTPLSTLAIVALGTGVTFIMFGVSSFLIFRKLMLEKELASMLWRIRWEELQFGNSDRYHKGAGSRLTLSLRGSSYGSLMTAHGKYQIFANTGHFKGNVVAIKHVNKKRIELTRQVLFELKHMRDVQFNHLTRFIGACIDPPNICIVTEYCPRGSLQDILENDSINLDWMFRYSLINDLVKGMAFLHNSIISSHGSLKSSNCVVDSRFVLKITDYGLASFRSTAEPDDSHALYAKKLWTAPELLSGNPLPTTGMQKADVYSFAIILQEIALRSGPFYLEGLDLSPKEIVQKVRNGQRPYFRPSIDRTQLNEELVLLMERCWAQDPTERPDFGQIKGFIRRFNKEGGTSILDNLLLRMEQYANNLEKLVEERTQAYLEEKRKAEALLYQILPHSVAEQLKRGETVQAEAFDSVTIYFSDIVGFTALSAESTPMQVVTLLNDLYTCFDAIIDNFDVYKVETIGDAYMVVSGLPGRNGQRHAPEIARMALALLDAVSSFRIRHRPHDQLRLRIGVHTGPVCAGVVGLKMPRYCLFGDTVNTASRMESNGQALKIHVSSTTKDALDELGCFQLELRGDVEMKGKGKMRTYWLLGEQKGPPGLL
Experimental: As used herein “EC50” with regard to controlled-release CNP agonist and CNP agonist refers to the concentration of controlled-release CNP agonist and CNP agonist with which a half-maximum cGMP production of NPR-B is elicited. NPR-B activity in the form of its EC50 of the controlled-release CNP agonist, of the released CNP agonist and of CNP-22 is measured by cultivating NIH-3T3 (Murine Embryo Fibroblast cell line) cells which express NPR-B on their cell surface, incubating the cells with the controlled-release CNP agonist, the corresponding released CNP agonist or CNP-22, respectively, and determining the intracellular production of the second messenger cGMP with a standard cGMP assay. In particular the assay is performed as follows: • (1) murine NIH-3T3 cells expressing endogenous NPR-B are cultivated in DMEM F-12 medium with 5% FBS and 5 mM glutamine at 37° C. and 5% CO2; • (2) for each assay 50,000 cells are resuspended in Dulbecco's PBS with IBMX and incubated with either the controlled-release CNP agonist, the corresponding released CNP agonist or CNP-22; each in different concentrations; • (3) after incubating for 30 min at 37° C. and 5% CO2, the cells are lysed and cGMP levels are determined; and • (4) generating an EC50 value from the determined cGMP levels.
Functional activity of CNP variants were determined in a cell-based assay with NIH-3T3 cells (Murine Embryo Fibroblast cell line). These cells express endogenously the NPR-B receptor on the cell surface. Stimulation of the NPR-B receptor with CNP leads to intracellular production of the second messenger cGMP which is detected with a commercially available cGMP assay. NIH-3T3 cells were routinely cultured in DMEM F-12 medium with 5% FBS and 5 mM glutamine at 37° C. and 5% CO2. For each assay, 50,000 cells were resuspended in stimulation buffer (Dulbecco's PBS with IBMX) and incubated with the CNP variants in different concentrations. CNP (dilutions were made in PBS with 0.2% BSA). After incubation of 30 min at 37° C. and 5% CO2, the cells were lyzed and cGMP levels were determined with a commercially available cGMP TR-FRET assay (Cisbio, cGMP kit, Cat. No. 62GM2PEB). PEGylated CNP variants were always characterized in comparison with the non-PEGylated version in the same experiment batch. If possible, evaluation of the residual activity was done via the relative EC50-parameter of the resulting dose-response curve (restricted model with common slope).
11i was incubated under physiological conditions (1 mg CNP-38 eq/mL), as described in Example 20. After 7 d, released CNP-38 was isolated by RP-HPLC and analyzed for bioactivity as described in Example 21.

[5] = target: T2, NPR-C (Homo sapiens, UniProt P17342); assay: NPR-C affinity assay; assay type: binding; details: residual NPR-C affinity, NPR-C expressing Hek293 cells, competition with fluorescein-labelled CNP 27d
T2 construct: expressed in transfected cells; host or cells: Hek293, lentiviral transduction, CMV promoter, puromycin selection
T2 sequence (P17342 27-541): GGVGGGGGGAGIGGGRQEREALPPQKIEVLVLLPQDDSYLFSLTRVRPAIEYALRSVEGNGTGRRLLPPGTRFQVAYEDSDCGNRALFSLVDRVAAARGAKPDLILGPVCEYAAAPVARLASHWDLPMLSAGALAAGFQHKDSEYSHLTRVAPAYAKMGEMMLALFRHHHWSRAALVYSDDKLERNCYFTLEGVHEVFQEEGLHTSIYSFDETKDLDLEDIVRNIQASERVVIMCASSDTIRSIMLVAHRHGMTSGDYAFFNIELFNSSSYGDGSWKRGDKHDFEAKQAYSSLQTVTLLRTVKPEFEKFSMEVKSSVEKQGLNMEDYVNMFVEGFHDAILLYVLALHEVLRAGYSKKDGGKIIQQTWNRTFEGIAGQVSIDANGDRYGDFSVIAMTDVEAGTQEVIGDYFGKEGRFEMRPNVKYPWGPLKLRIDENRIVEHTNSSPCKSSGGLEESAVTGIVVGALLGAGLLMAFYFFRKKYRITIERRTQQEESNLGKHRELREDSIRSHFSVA

[6] = Evaluation of cardiovascular effects in the conscious telemetered mouse (subcutaneous administration); assay type: in vivo, Crl:CD1(ICR) mice; details: 800 μg CNP-38 (eq)/kg sc; for MAP: mean ± SD, n = 4
Source text: The purpose of this study was to evaluate the haemodynamic side effects of 11i at dose level equivalent to a CNP-38 dose level eliciting haemodynamic side effects (decrease in blood pressure) in the telemetered mouse.
Male Crl:CD1(ICR) mice (age range 8-13 weeks and body weight range 27.3-35.6 g at start of dosing) were surgically implanted with a TA11PA-C10 telemetry transmitter (Data Sciences International (DSI)) in the carotid artery. The body of the transmitter was placed subcutaneously in the lateral flank of the mouse. The mice were dosed subcutaneously in a latin square crossover design with at least 72 hours between dosing occasions. Mice were dosed with 1) vehicle (10 mM succinate, 46.0 g/L mannitol, pH 4.00), 2) CNP-38 (800 μg CNP-38/kg, 10 mM succinate, 46.0 g/L mannitol, pH 4.00) or 3) 11i (800 μg CNP-38 eq/kg, 10 mM succinate, 46.0 g/L mannitol, pH 4.00). At least four mice were included at each dose level. Blood pressure (systolic (SAP), diastolic (DAP) and mean (MAP) and heart rate (HR, derived from blood pressure), were recorded using a digital data capture system linked with a DSITM Ponemah data acquisition and analysis system. The capture system allowed recording of the cardiovascular parameters whilst the mice were in individual cages. On the day of each test session the animals were weighed and a predose recording was performed for at least 60 min prior to dosing. Each mouse was returned to the home cage and the cardiovascular parameters were recorded for approximately 48 hours postdose. Blood pressure and HR were reported at the following time points: −30, −20, −10, 5, 15 and 30 min postdose and 1, 2, 6, 12, 18, 24, 30, 36, 42 and 48 hours postdose. Each time point was presented as the average value of five minute's recording prior to the time point. The monitoring period was selected to cover exposure to the test items both prior to and after Tmax.

[7] = Pharmacokinetic profile of CNP-38 after subcutaneous single-dose administration to cynomolgus monkeys; assay type: in vivo
Experimental: This study was performed in order to test the pharmacokinetics of CNP-38 after subcutaneous (s.c.) administration in cynomolgus monkeys. […] Blood samples were collected at 5, 10, 15, 30, 45 min and 1, 2, 4, 8 hours upon dose.
Method: Plasma levels of CNP were analysed using a commercially available competitive radioimmuno-assay (RK-012-03, Phoenix Pharmaceuticals, CA). The assay was applied essentially as described by the manufacturer. The assay is based on competitive binding between 125I-labelled CNP (supplied in the kit) and unlabeled CNP (from study sample or calibrants) to an anti-CNP antibody. When the concentration of CNP in the sample increases, the amount of 125I-labelled CNP that is able to bind to the antibody decreases. By measuring the amount of 125I-labelled CNP bound as a function of the concentration of peptide, it is possible to construct a calibration curve from which the concentration of peptide in the sample can be determined.
A few changes to the supplied assay protocol were made. These changes included using in-house CNP calibrant and QC samples to secure consistency between assay runs. In order to shorten the duration of the assay, the initial incubation of samples with antibodies was performed at room temperature for 5 hours (instead of 16-24 hours at 4° C.). Due to matrix effects in monkey plasma, the minimal required dilution was set at 1:10, yielding an assay range of 150-1080 pg/mL CNP.

Chain of recombinant human NEP (P08473 whole entry): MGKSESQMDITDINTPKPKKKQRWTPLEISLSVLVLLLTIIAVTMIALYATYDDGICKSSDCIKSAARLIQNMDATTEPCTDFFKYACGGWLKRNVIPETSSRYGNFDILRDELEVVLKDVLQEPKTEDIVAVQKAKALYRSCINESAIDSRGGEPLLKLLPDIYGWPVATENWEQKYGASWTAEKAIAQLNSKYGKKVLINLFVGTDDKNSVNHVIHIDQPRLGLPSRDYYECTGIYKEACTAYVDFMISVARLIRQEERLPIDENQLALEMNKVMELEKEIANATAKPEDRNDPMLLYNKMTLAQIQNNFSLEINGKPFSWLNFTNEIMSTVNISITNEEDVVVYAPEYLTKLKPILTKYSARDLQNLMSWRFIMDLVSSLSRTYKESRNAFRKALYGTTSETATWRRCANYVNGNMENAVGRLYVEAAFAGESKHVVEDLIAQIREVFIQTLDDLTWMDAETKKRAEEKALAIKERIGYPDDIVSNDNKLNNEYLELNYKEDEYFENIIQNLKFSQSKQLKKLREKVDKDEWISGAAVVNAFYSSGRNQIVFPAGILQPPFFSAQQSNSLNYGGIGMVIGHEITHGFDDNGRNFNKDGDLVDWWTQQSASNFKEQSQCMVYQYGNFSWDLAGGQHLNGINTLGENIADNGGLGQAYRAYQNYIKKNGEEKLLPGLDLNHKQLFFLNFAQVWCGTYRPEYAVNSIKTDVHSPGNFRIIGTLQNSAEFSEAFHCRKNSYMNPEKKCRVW

Compound: Permanent Lys16 CNP-34 PEG 5 kDa Conjugate [Compound 17e]
- half-life [1]: 54.2 h

Compound: CNP: natriuretic peptide CNP injected in healthy volunteers (Igaki et al.)
- heart rate [2]: significant increase in heart rate
- systolic and diastolic blood pressure [2]: transient but significant decrease in both systolic and diastolic blood pressure

Compound: Permanent Lys22 CNP-34 PEG 5 kDa Conjugate [Compound 18e]
- half-life [1]: 38.9 h

Compound: CC[C@H](C)[C@@H]1NC(=O)[C@H](CCCNC(=N)N)NC(=O)[C@H](CC(=O)O)NC(=O)[C@H](CC(C)C)NC(=O)[C@H](CCCCN)NC(=O)[C@H](CC(C)C)NC(=O)CNC(=O)[C@H](Cc2ccccc2)NC(=O)[C@@H](NC(=O)CNC(=O)[C@H](CCCCN)NC(=O)[C@H](CO)NC(=O)[C@H](CC(C)C)NC(=O)CN)CSSC[C@@H](C(=O)O)NC(=O)CNC(=O)[C@H](CC(C)C)NC(=O)CNC(=O)[C@H](CO)NC(=O)[C@H](CCSC)NC(=O)[C@H](CO)NC(=O)CNC1=O [CNP-22]
- half-life [3]: 2 min

Compound: Permanent Lys26 CNP-38 PEG 5 kDa Conjugate [Compound 19e]
- EC50 compound/EC50 CNP-38 [4]: >100
- half-life [1]: 62.8 h
- IC50 of PEGylated CNP-38/IC50 CNP-38 [5]: 1.1

Compound: CC[C@H](C)[C@@H]1NC(=O)[C@H](CCCNC(=N)N)NC(=O)[C@H](CC(=O)O)NC(=O)[C@H](CC(C)C)NC(=O)[C@H](CCCCN)NC(=O)[C@H](CC(C)C)NC(=O)CNC(=O)[C@H](Cc2ccccc2)NC(=O)[C@@H](NC(=O)CNC(=O)[C@H](CCCCN)NC(=O)[C@H](CO)NC(=O)[C@H](CC(C)C)NC(=O)CNC(=O)[C@H](CCCCN)NC(=O)[C@H](CCCCN)NC(=O)[C@H](CC(N)=O)NC(=O)[C@H](C)NC(=O)CNC(=O)[C@H](CCCCN)NC(=O)[C@H](Cc2ccc(O)cc2)NC(=O)[C@H](CCCCN)NC(=O)[C@H](CCCNC(=N)N)NC(=O)[C@H](C)NC(=O)[C@H](CC(N)=O)NC(=O)[C@@H]2CCCN2C(=O)[C@H](Cc2c[nH]cn2)NC(=O)[C@H](CCC(=O)O)NC(=O)[C@H](CCC(N)=O)NC(=O)[C@@H](N)CC(C)C)CSSC[C@@H](C(=O)O)NC(=O)CNC(=O)[C@H](CC(C)C)NC(=O)CNC(=O)[C@H](CO)NC(=O)[C@H](CCSC)NC(=O)[C@H](CO)NC(=O)CNC1=O [CNP-38, reference compound]
- HR [6]: not impacted
- MAP versus vehicle at the remaining ten time points ([6]; 1 to 48 hours postdose): no difference in MAP
- change in MAP compared to predose ([6]; 5, 15 and 30 min post dose, CNP-38: 3 of 4 animals): significant decrease in MAP
- MAP ([6]; 5 min post dose): 102.0 ± 7.5 mmHg
- MAP ([6]; 15 min post dose): 89.5 ± 29.4 mmHg
- MAP ([6]; 30 min post dose): 99.5 ± 25.2 mmHg
- MAP ([6]; predose): 106.8 ± 13.4 mmHg
- Half-life (mean) ([7]; cynomolgus monkey, in vivo, sc, 40 ug/kg): 6.6 min
- half-life ([7]; male, cynomolgus monkey, in vivo, sc, 40 ug/kg): ~7 min
- tolerability ([7]; single s.c. 40 μg/kg): well tolerated
